Laboratory results from patent US20050014676A1, “Methods for delaying or inducing labor” (Boston Biomedical Research Institute, priority 2003, published 2005).
“Also recorded” adds a separate entry of the source.

Experiments:
[1] = tested on: 20-kDa myosin light chain (LC20); test: Measurement of myosin light chain 20 phosphorylation (LC20-P) in permeabilized myometrial strips; parameters: species or system rat; settings: 51 mM KCl stimulated for 4 min myometrial strips
Experimental: Measurements of myosin light chain 20 phosphorylation (LC20-P). Tissue preparation was as described above. After equilibration and stretching, the myometrial strips were permeabilized with 20 μg/ml alpha-toxin (List Biological Lab, Campbell, Calif.) at 34° C. for 30 min. The intracellular Ca2+ concentration was clamped at pCa7.0 for 12 min to prevent an artifactual triggering of contractions in response to the freezing solution. The measurement of LC20-P was performed by glycerol urea gels and western blots as previously published (Je et al., J. Physiol. 537, 567-577 (2001)). Moles phosphate per mole myosin light chain was calculated by dividing the density of the phosphorylated band by the sum of densities of phosphorylated plus the unphosphorylated bands.

pregnant rats and pups = test: Fetal weight and toxicity to mothers and pups; type: in vivo, rat; settings: for Fetal number/rat / Fetal weight: gestation day 20; for Fetal weight: (n) in brackets
Text: Animals and treatment groups. All procedures were approved by our institutional animal care and use committee (IACUC). Sprague-Dawley nonpregnant and time-mated, primigravid pregnant rats (day 1=sperm positive, Taconic, Germantown, N.Y.) were used for the experiments. They were housed in a constant-temperature room with a 12-hr light and 12-hr dark cycle. Food and water were available ad libitum. The rats were divided into five groups: nonpregnant (NP), sham, RU486 treated (RU), U0126+RU486 treated (U0+RU) and spontaneous labor (SL). The sequential scheme of the experiment is illustrated in FIG. 1.
Induction of preterm labor: In the RU group, rats (n=6) were treated with RU486 subcutaneously (SC) at dose of 2 mg/kg (concentration of 3 mg/ml in sunflower seed oil) at 10 am on day 19 of pregnancy. Then the rats were closely observed for signs of labor on day 20 of pregnancy.
U0126 treatment: In the U0+RU group, 18-day pregnant rats (n=6) were treated with U0126 at dose of 100 mg/kg, SC, q8h (7 am, 3 pm and 11 pm). U0126 was dissolved at a concentration of 200 mg/ml in DMSO. On day 19 of pregnancy, the rats were administrated RU486 at 10 am for preterm labor induction. The U0126 treatment continued till the onset of labor.
Tissue preparation and force recording.

[2] = tested on: Sprague-Dawley pregnant rats; test: RU486-induced preterm labor in rats, onset of labor; settings: for average delivery time after RU486 administration: RU486 2 mg/kg SC at 10 am day 19 of pregnancy, U0126 100 mg/kg SC q8h from day 18 until labor, mean±SEM
myometrial strips = test: In vitro myometrial contractility (isometric force, AUC) of strips from treated rats
ERK2 = test: Western blot of myometrial ERK2 phosphorylation (p-ERK2/ERK2); parameters: species or system rat; settings: myometrium at onset of labor
Experimental: (§1) Western blot analysis. The muscle strips were quick-frozen in a dry ice acetone/DTT/TCA slurry at the end of force recording experiment. Samples were homogenized in a buffer containing 20 mM MOPS, 4% SDS, 1% Triton, 10% glycerol, 10 mM DTT, 20 mM β-glycerophosphate, 5.5 μM leupeptin, 5.5 μM pepstatin A, 20 KIU aprotinin, 2 mM Na3VO4, 1 mM NaF, 20 μM 4-(2-aminorthyl) benzenesulphonyl fluoride (AEBSF) and 100 μM ZnCl2. Protein-matched samples were SDS-PAGE electrophoresed, transferred to Immobilon-P membrane (Millipore, Bedford, Mass.), and subjected to immunostaining using the appropriate antibody. Blots were visualized with a SuperSignal West Pico Peroxide Solution (Pierce, Rockford, Ill.). The images were detected with a chemiluminescence screen and quantified with a BioRad Molecular Imager and Multi-Analyst software.

[3] = tested on: high molecular weight caldesmon (h-CaD); test: Western blot of myometrial h-CaD phosphorylation (Ser789); parameters: species or system rat; settings: myometrium at onset of labor
Experimental: as §1

SMILES: [Cl-].[K+] [KCI]
- LC20-P level, positive control [1]: 39.68±3.33

SMILES: CC#C[C@]1(O)CC[C@H]2[C@@H]3CCC4=CC(=O)CCC4=C3[C@@H](c3ccc(N(C)C)cc3)C[C@@]21C [RU486, 11 β-[4-Dimethylamino] phenyl-17β-hydroxy-17-[1-propynyl] estra-4,9-dien-3-one]
- Fetal number/rat (pregnant rats and pups): 13.4
- Fetal weight (pregnant rats and pups): 2.46 ± 0.068 (16) grams
- average delivery time after RU486 administration ([2]; n=6): 22.25 ± 0.24 h
- average gestational length ([2]; RU486-induced preterm labor, Mean±SD, n=6): 20.35 ± 0.02 days
- area under force curve (AUC) normalized to tissue dry weight (myometrial strips; strips from treated rats at labor, force integrated over 15 min): 381.49 ± 44.92 g·s/mg

SMILES: N#CC(=C(N)Sc1ccccc1N)C(C#N)=C(N)Sc1ccccc1N [U0126, 1,4-diamino-2,3-dicyano-1,4-bis (2-aminophenylthio) butadiene]
- signs of toxicity to mother or offspring (pregnant rats and pups; U0126 at doses sufficient to delay preterm labor): no apparent signs of toxicity; also recorded: no obvious signs of toxicity
- effect on fetal weight (pregnant rats and pups; U0126 treatment): did not affect fetal weight
- daily weight gain or general behavior of pregnant rats, U0+RU vs RU group (pregnant rats and pups; data not shown): no difference
- Fetal number/rat (pregnant rats and pups): 12.3
- Fetal weight (pregnant rats and pups): 2.46 ± 0.036 (31) grams
- ERK2 phosphorylation (p-ERK2/ERK2), words (ERK2): indistinguishable
- average delivery time after RU486 administration ([2]; n=6): 25.18 ± 0.64 h
- delay of RU486-induced preterm labor ([2]; U0126 pretreatment, rats): delays RU486-induced preterm labor in a statistically significant manner
- h-CaD phosphorylation normalized to CaD protein, words [3]: indistinguishable
- myometrial AUC once labor commenced, vs RU486 or spontaneous labor (myometrial strips; U0+RU group): indistinguishable
